Measurements as given in ChEMBL document CHEMBL3046633, “Synthesis and antimycobacterial activities of some new N-acylhydrazone and thiosemicarbazide derivatives of 6-methyl-4,5-dihydropyridazin-3(2H)-one” (2012).
In brackets after ≈: the same amount, converted by molar mass.

system: Mycobacterium tuberculosis; assay: Antimycobacterial activity against Mycobacterium tuberculosis by agar dilution method; type: functional

SMILES	MIC [µM]
CC1=NN(CC(=O)N/N=C/c2ccc(Cl)cc2)C(=O)CC1	3.13 (≈ 0.96 µg/mL)
CC1=NN(CC(=O)N/N=C/c2ccc(C(F)(F)F)cc2)C(=O)CC1	1.56 (≈ 0.531 µg/mL)
CNC(=S)NNC(=O)CN1N=C(C)CCC1=O	> 25
CC1=NN(CC(=O)N/N=C/c2ccc([N+](=O)[O-])cc2)C(=O)CC1	6.25 (≈ 1.98 µg/mL)
CC1=NN(CC(=O)N/N=C/c2cccs2)C(=O)CC1	25 (≈ 6.96 µg/mL)
CC1=NN(CC(=O)NN)C(=O)CC1	25 (≈ 4.6 µg/mL)
COc1ccc(/C=N/NC(=O)CN2N=C(C)CCC2=O)cc1	25 (≈ 7.56 µg/mL)
CC1=NN(CC(=O)N/N=C/c2ccco2)C(=O)CC1	> 25
CC1=NN(CC(=O)N/N=C(\C)c2ccc(Cl)cc2Cl)C(=O)CC1	12.5 (≈ 4.44 µg/mL)
CC1=NN(CC(=O)N/N=C/c2ccc(F)cc2)C(=O)CC1	1.56 (≈ 0.453 µg/mL)
COc1ccc(/C(C)=N/NC(=O)CN2N=C(C)CCC2=O)cc1	25 (≈ 7.91 µg/mL)
CC1=NN(CC(=O)N/N=C/c2ccc(N(C)C)cc2)C(=O)CC1	12.5 (≈ 3.94 µg/mL)
CC1=NN(CC(=O)N/N=C(\C)c2ccc([N+](=O)[O-])cc2)C(=O)CC1	12.5 (≈ 4.14 µg/mL)
CC1=NN(CC(=O)N/N=C/c2ccc(C)cc2)C(=O)CC1	12.5 (≈ 3.58 µg/mL)
CC1=NN(CC(=O)N/N=C/c2ccccc2)C(=O)CC1	12.5 (≈ 3.4 µg/mL)
CC1=NN(CC(=O)N/N=C(\C)c2ccccc2)C(=O)CC1	25 (≈ 7.16 µg/mL)
CC1=NN(CC(=O)NNC(=S)Nc2ccccc2)C(=O)CC1	> 25
CC1=NN(CC(=O)N/N=C(\C)c2ccc(Br)cc2)C(=O)CC1	12.5 (≈ 4.57 µg/mL)
CC[C@@H](CO)NCCN[C@@H](CC)CO [ETHAMBUTOL]	1.56 (≈ 0.319 µg/mL)
CC1=NN(CC(=O)N/N=C(\C)c2ccc(-c3ccccc3)cc2)C(=O)CC1	25 (≈ 9.06 µg/mL)
CC1=NN(CC(=O)N/N=C(\C)c2ccc(C)cc2)C(=O)CC1	25 (≈ 7.51 µg/mL)
NNC(=O)c1ccncc1 [ISONIAZID]	0.05 (≈ 0.00686 µg/mL)
CO[C@H]1/C=C/O[C@@]2(C)Oc3c(C)c(O)c4c(O)c(c(/C=N/N5CCN(C)CC5)c(O)c4c3C2=O)NC(=O)/C(C)=C\C=C\[C@H](C)[C@H](O)[C@@H](C)[C@@H](O)[C@@H](C)[C@H](OC(C)=O)[C@@H]1C [RIFAMPIN]	0.1 (≈ 0.0823 µg/mL)
CC1=NN(CC(=O)N/N=C/c2ccc(Br)cc2)C(=O)CC1	1.56 (≈ 0.548 µg/mL)
O=C(O)c1cn(C2CC2)c2cc(N3CCNCC3)c(F)cc2c1=O [CIPROFLOXACIN]	1.56 (≈ 0.517 µg/mL)
CCOc1ccc(/C=N/NC(=O)CN2N=C(C)CCC2=O)cc1	> 25
CC1=NN(CC(=O)N/N=C/c2ccc(Cl)cc2Cl)C(=O)CC1	0.78 (≈ 0.266 µg/mL)
CC1=NN(CC(=O)N/N=C(\C)c2ccc(Cl)cc2)C(=O)CC1	12.5 (≈ 4.01 µg/mL)
CCNC(=S)NNC(=O)CN1N=C(C)CCC1=O	> 25
